The numbers were not newly measured in US20230144779A1, “FORMULATIONS AND METHOD FOR TREATMENT OF INFLAMMATORY DISEASES” (VYOME THERAPEUTICS INC., priority 2019, published 2023), which cites them from elsewhere.

Each structure is given as a SMILES string.

As to `COc1c(C)c2c(c(O)c1C/C=C(\C)CCC(=O)O)C(=O)OC2` [Mycophenolic acid (MPA), Mycophenolic acid], the solubility entry is reported as “Practical insoluble, 63 mcg/ml. MPA as such is not available in the market, it is available as salt form Hydrophilic nature as compared to its ester prodrug”.
